# Measured values as given in US20240306670A1, “BERBERINE ALKALOIDS IN THE PREVENTION AND/OR TREATMENT OF INTESTINAL DISEASE” (priority 2017, published 2024).
# Where two headings read alike, the source gives them in different places.
# Legend:
# [1] = tested on: Eimeria species (mainly E. acervulina)
# E. coli causing scour = assay: In vitro MIC against pig disease strains (Example 5); type: cell-based; settings: all 5 strains of E. coli causing scour
# [2] = tested on: Necrotic Enteritis strain of C. perfringens; type: cell-based, Clostridium perfringens
# [3] = tested on: clinical isolate of C. difficile; assay: In vitro MIC and MBC against Clostridium difficile (Example 6); type: cell-based
# [4] = in vivo; cited from earlier work
# [5] = in vivo
# [6] = Feed palatability, feed and water consumption and bird productivity study (Example 2); type: in vivo, broiler chickens; settings: treated birds, in-water days 6-42
# Source text: A follow-up study to determine the feed palatability, feed and water consumption and bird productivity following incorporation of a single formulation of IRP001 hemisulfate salt (unmasked) when offered to broiler chickens in-feed or in-water. The study explores the optimal treatment regime in terms of treatment start date.
# Phase 1: On receipt, two hundred and seventy (270) day-old commercial broiler chickens were allocated sequentially as they are received into sixteen (16) individual floor pens, each of 16 or 17 birds, on Day 0.
# Phase 2: On receipt, the ninety (90) day-old commercial broiler chickens were allocated sequentially as they are received into four (4) individual floor pens, each of 22 or 23 birds, on Day 22.
# Feed intake, water intake, weight gain and mortality were used as outcome parameters.
# Individual daily feed intake and individual daily water intake data by pen and then by treatment group were calculated for Phases 1 and 2 (and for the entire trial for the birds in Group/Pen 2, 15 and 16 that continue through both Phases) using figures for total feed and water provided each day to each pen divided by the number of birds in each pen. Where errors in weighing, feeding/watering or recording (or other unexplained losses of feed and water) had occurred means were adjusted by using the mean value for the same pen on the 1-2 days either side of the apparent error. Similarly, group mean bodyweights were calculated for Phase 1 using total weight/total no. birds for Day 0 and individual weights from Days 7, 14, 21, 28, 35 and 42. Total (individual) feed consumed was calculated per treatment and feed conversion ratios per treatment calculated using the expression: total (individual) feed/total (individual) weight gain.
# Individual daily feed intake and individual daily water intake were statistically compared by treatment within each phase and between Pens 2 and 15/16 over both phases using a linear model:—
# and Tibco SPOTFIRE S+ 8.2 (2010). ‘Day’ was included in the model to allow for changes over time, ‘Pen’ as each treatment consisted of 2 pens while an interaction term ‘Treatment:Day’ was included to allow for treatment×time effects. Model suitability was confirmed by inspection of residual plots; in all instances the statistical model was appropriate.
# [7] = tested on: Clostridium Perfringens (type A strain EHE-NE36) after Eimeria oocyst challenge; settings: NE challenged broilers; for median lesion scores: relative to nil-treatment; for small intestinal lesion scores: relative to nil treatment
# [8] = cited from earlier work
compound,measurement,setting,value
"CC[C@@H](C(=O)[C@@H](C)[C@@H](O)[C@H](C)[C@@H]1O[C@@H]([C@@H](CC)C(=O)O)CC[C@@H]1C)[C@H]1O[C@]2(C=C[C@@H](O)[C@]3(CC[C@@](C)([C@H]4CC[C@](O)(CC)[C@H](C)O4)O3)O2)[C@H](C)C[C@@H]1C [salinomycin, Salinomycin, reference compound]",Intestinal health score: Ballooning (total gut),[1]; 21 days,0.10
same,Intestinal health score: Contents lower intestine,[1]; 21 days,0.45
same,Intestinal health score: Contents upper intestine,[1]; 21 days,0.65
same,Intestinal health score: Hyperaemia lower intestine,[1]; 21 days,0.00
same,Intestinal health score: Hyperaemia upper intestine,[1]; 21 days,0.15
same,Intestinal health score: Tonus lower intestine,[1]; 21 days,0.50
same,Intestinal health score: Tonus upper intestine,[1]; 21 days,0.50
same,Intestinal health score: Total Intestine (maximum 10),[1]; 21 days,3.55
same,Intestinal health score: Translucency lower intestine,[1]; 21 days,0.85
same,Intestinal health score: Translucency upper intestine,[1]; 21 days,0.20^B
same,Intestinal health score: Undigested particles in (rectum),[1]; 21 days,0.15^B
same,Intestinal health score: Ballooning (total gut),[1]; 28 days,0.80
same,Intestinal health score: Contents lower intestine,[1]; 28 days,0.00
same,Intestinal health score: Contents upper intestine,[1]; 28 days,1.00
same,Intestinal health score: Hyperaemia lower intestine,[1]; 28 days,0.20
same,Intestinal health score: Hyperaemia upper intestine,[1]; 28 days,0.80
same,Intestinal health score: Tonus lower intestine,[1]; 28 days,0.60
same,Intestinal health score: Tonus upper intestine,[1]; 28 days,0.80
same,Intestinal health score: Total Intestine (maximum 10),[1]; 28 days,5.20
same,Intestinal health score: Translucency lower intestine,[1]; 28 days,0.20
same,Intestinal health score: Translucency upper intestine,[1]; 28 days,0.40
same,Intestinal health score: Undigested particles in (rectum),[1]; 28 days,0.40
same,FCR 0-14 corrected for mortality,[1]; in vivo,1.113
same,FCR 0-21 corrected for mortality,[1]; in vivo,1.238
same,FCR 0-28 corrected for mortality,[1]; in vivo,1.470
same,FCR 0-42 corrected for mortality,[1]; in vivo,1.546^BC
same,"Faecal oocyst count, Mean",[1]; in vivo,"72,046 Oocyst/g"
same,Feed per bird over days 0-14,[1]; in vivo,497^AB g/bird
same,Feed per bird over days 0-21,[1]; in vivo,1193^B g/bird
same,Feed per bird over days 0-28,[1]; in vivo,2074 g/bird
same,Feed per bird over days 0-42,[1]; in vivo,4298 g/bird
same,Mean Coccidiosis Lesion Score (maximum 4) Caeca,[1]; in vivo,0.00
same,Mean Coccidiosis Lesion Score (maximum 4) Duodenum,[1]; in vivo,1.35^ABC
same,Mean Coccidiosis Lesion Score (maximum 4) Ileum,[1]; in vivo,0.00
same,Mean Coccidiosis Lesion Score (maximum 4) Jejunum,[1]; in vivo,0.40^B
same,Mean Coccidiosis Lesion Score Total,[1]; in vivo,1.75^B
same,Mean Weight Gain over days 0-7,[1]; in vivo,116 gm
same,Mean Weight Gain over days 8-14,[1]; in vivo,330^BC gm
same,Mean Weight Gain over days 15-21,[1]; in vivo,517^A gm
same,Mean Weight Gain over days 22-28,[1]; in vivo,645 gm
same,Mean Weight Gain over days 29-42,[1]; in vivo,1384 gm
same,Mean live weight at 0 days,[1]; in vivo,41 gm
same,Mean live weight at 7 days,[1]; in vivo,157 gm
same,Mean live weight at 14 days,[1]; in vivo,446^B gm
same,Mean live weight at 21 days,[1]; in vivo,963^AB gm
same,Mean live weight at 28 days,[1]; in vivo,1608^A gm
same,Mean live weight at 42 days,[1]; in vivo,2991^A gm
same,growth rate,[1]; in vivo,statistically similar to the control group
COc1cc2c(cc1OC)-c1cc3ccc(OC)c(OC)c3c[n+]1CC2 [palmatine],MIC,E. coli causing scour,125 µg/mL
"CN[C@H](CC(C)C)C(=O)N[C@H]1C(=O)N[C@@H](CC(N)=O)C(=O)N[C@H]2C(=O)N[C@H]3C(=O)N[C@H](C(=O)N[C@H](C(=O)O)c4cc(O)cc(O)c4-c4cc3ccc4O)[C@H](O)c3ccc(c(Cl)c3)Oc3cc2cc(c3O[C@@H]2O[C@H](CO)[C@@H](O)[C@H](O)[C@H]2O[C@H]2C[C@](C)(N)[C@H](O)[C@H](C)O2)Oc2ccc(cc2Cl)[C@H]1O [Vancomycin, reference compound]",MIC,[2],within the expected range
same,MIC,[3],within the expected range
"COc1ccc2cc3[n+](cc2c1OC)CCc1cc2c(cc1-3)OCO2 [IRP001, berberine]",MIC,"[2]; C. perfringens NE strain, Berberine sulfate (purity 98.0%) as test agent",125 µg/mL
same,inhibition of growth,"[2]; C. perfringens, at 62.5 µg/ml",partial inhibition of growth
same,MIC,"[3]; Clostridioides difficile, C. difficile clinical isolate, Berberine sulfate as test agent, variation between replicates, read-out: MIC",500 to 1000 µg/mL
same,MBC,"[3]; Clostridioides difficile, against CD (C. difficile)",880 to 1000 µg/mL
same,MIC,"[3]; Clostridioides difficile, against CD (C. difficile), read-out: MIC",640 to 820 µg/mL
same,carcinogenicity finding,[4],potential carcinogenicity
same,adverse reactions / unanticipated events,[5],no adverse reaction or unanticipated event
berberine hemisulfate [IRP001 sulfate],FCR (feed conversion ratio),[6],1.6 kg feed: 1 kg gain
same,weight gained,[6],2.35 kg
same,median lesion scores,[7]; 0.1 g/L in-water,no reduction in median lesion scores
same,Mortalities prior to autopsy,"[7]; 0.1 g/L in-water, vs nil-treatment",not significantly different
same,median lesion scores,[7]; 0.2 g/kg in-feed,no reduction in median lesion scores
same,Mortalities prior to autopsy,"[7]; 0.2 g/kg in-feed, vs nil-treatment",not significantly different
same,small intestinal lesion scores,[7]; 1.0 g/L in-water,substantial reduction in small intestinal lesion scores
same,Mortalities prior to autopsy,"[7]; 1.0 g/L in-water, relative to nil-treatment and low-dose groups",significant reduction in mortalities
same,small intestinal lesion scores,[7]; 2.0 g/kg in-feed,substantial reduction in small intestinal lesion scores
same,Mortalities prior to autopsy,"[7]; 2.0 g/kg in-feed, relative to nil-treatment and low-dose groups",significant reduction in mortalities
same,solubility,[8]; ethanol,slightly soluble
same,solubility,[8]; water,about 30 parts water
